According to ChEMBL document CHEMBL5032495, “Discovery of Novel Tacrine-Pyrimidone Hybrids as Potent Dual AChE/GSK-3 Inhibitors for the Treatment of Alzheimer's Disease” (J Med Chem, 2021):
Activity calls are given as the source filed them. The rule behind the calls is not given here.

Assays:
Acetylcholinesterase = molecular target: T1, Acetylcholinesterase (Mus musculus, UniProt P21836); assay: Inhibition of mouse AChE using acetylthiocholine iodide as substrate incubated for 20 mins by Ellman's method
T1 sequence (P21836 whole entry): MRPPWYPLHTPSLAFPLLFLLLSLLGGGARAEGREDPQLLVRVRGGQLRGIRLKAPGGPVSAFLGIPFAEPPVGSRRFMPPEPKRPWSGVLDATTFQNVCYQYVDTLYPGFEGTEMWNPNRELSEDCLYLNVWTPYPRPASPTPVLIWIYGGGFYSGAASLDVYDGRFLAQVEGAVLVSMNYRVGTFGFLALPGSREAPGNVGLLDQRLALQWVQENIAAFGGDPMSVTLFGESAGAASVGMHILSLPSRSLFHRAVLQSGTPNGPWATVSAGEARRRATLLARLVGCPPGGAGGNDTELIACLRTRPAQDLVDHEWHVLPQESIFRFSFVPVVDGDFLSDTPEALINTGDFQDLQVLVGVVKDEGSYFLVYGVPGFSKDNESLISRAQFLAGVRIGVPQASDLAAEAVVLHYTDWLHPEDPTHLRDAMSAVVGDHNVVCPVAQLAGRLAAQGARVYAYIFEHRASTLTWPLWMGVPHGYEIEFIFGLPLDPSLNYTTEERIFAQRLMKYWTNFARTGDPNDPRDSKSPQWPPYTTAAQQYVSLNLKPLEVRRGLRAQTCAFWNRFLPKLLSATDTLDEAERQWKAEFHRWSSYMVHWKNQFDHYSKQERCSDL

[1] = Half life in ICR mouse at 5 mg/kg, iv measured upto 24 hrs by UPLC-MS/MS analysis; type: ADME, organism-based; settings: in vivo
[2] = Half life in ICR mouse at 15 mg/kg, ip measured upto 24 hrs by UPLC-MS/MS analysis; type: ADME, organism-based; settings: in vivo
[3] = Tmax in ICR mouse at 5 mg/kg, iv measured upto 24 hrs by UPLC-MS/MS analysis; type: ADME, organism-based; settings: in vivo
[4] = Tmax in ICR mouse at 15 mg/kg, ip measured upto 24 hrs by UPLC-MS/MS analysis; type: ADME, organism-based; settings: in vivo
[5] = Cmax in ICR mouse at 5 mg/kg, iv measured upto 24 hrs by UPLC-MS/MS analysis; type: ADME, organism-based; set-up: route intravenous, dose 5 mg/kg, time <=24; settings: in vivo
[6] = Cmax in ICR mouse at 15 mg/kg, ip measured upto 24 hrs by UPLC-MS/MS analysis; type: ADME, organism-based; set-up: route intraperitoneal, dose 15 mg/kg, time <=24; settings: in vivo
[7] = AUClast in ICR mouse at 5 mg/kg, iv measured upto 24 hrs by UPLC-MS/MS analysis; type: ADME, organism-based; set-up: route intravenous, dose 5 mg/kg, time <=24; settings: in vivo
[8] = AUClast in ICR mouse at 15 mg/kg, ip measured upto 24 hrs by UPLC-MS/MS analysis; type: ADME, organism-based; set-up: route intraperitoneal, dose 15 mg/kg, time <=24; settings: in vivo
[9] = Volume of distribution in ICR mouse at 5 mg/kg, iv measured upto 24 hrs by UPLC-MS/MS analysis; type: ADME, organism-based; settings: in vivo
[10] = Volume of distribution in ICR mouse at 15 mg/kg, ip measured upto 24 hrs by UPLC-MS/MS analysis; type: ADME, organism-based; settings: in vivo
[11] = Apparent oral clearance in ICR mouse at 5 mg/kg measured upto 24 hrs by UPLC-MS/MS analysis; type: ADME, organism-based; settings: in vivo
[12] = Apparent oral clearance in ICR mouse at 15 mg/kg measured upto 24 hrs by UPLC-MS/MS analysis; type: ADME, organism-based; settings: in vivo
[13] = MRTlast in ICR mouse at 5 mg/kg, iv measured upto 24 hrs by UPLC-MS/MS analysis; type: ADME, organism-based; settings: in vivo
[14] = MRTlast in ICR mouse at 15 mg/kg, ip measured upto 24 hrs by UPLC-MS/MS analysis; type: ADME, organism-based; settings: in vivo
[15] = Bioavailability in ICR mouse at 15 mg/kg, ip measured upto 24 hrs by UPLC-MS/MS analysis; type: ADME, organism-based; settings: in vivo
[16] = Drug concentration in ICR mouse plasma at 15 mg/kg, ip measured after 0.5 hrs by UPLC-MS/MS analysis; type: ADME, organism-based
[17] = Drug concentration in ICR mouse plasma at 15 mg/kg, ip measured after 1 hr by UPLC-MS/MS analysis; type: ADME, organism-based
[18] = Drug concentration in ICR mouse plasma at 15 mg/kg, ip measured after 2 hrs by UPLC-MS/MS analysis; type: ADME, organism-based
[19] = Drug concentration in ICR mouse plasma at 15 mg/kg, ip measured after 4 hrs by UPLC-MS/MS analysis; type: ADME, organism-based
[20] = Drug concentration in ICR mouse brain at 15 mg/kg, ip measured after 0.5 hrs by UPLC-MS/MS analysis; type: ADME, organism-based; settings: read-out: Drug uptake
[21] = Drug concentration in ICR mouse brain at 15 mg/kg, ip measured after 1 hr by UPLC-MS/MS analysis; type: ADME, organism-based; settings: read-out: Drug uptake
[22] = Drug concentration in ICR mouse brain at 15 mg/kg, ip measured after 2 hrs by UPLC-MS/MS analysis; type: ADME, organism-based; settings: read-out: Drug uptake
[23] = Drug concentration in ICR mouse brain at 15 mg/kg, ip measured after 4 hrs by UPLC-MS/MS analysis; type: ADME, organism-based; settings: read-out: Drug uptake
[24] = Ratio of drug concentration in brain to plasma in ICR mouse at 15 mg/kg, ip measured after 0.5 hrs by UPLC-MS/MS analysis; type: ADME, organism-based
[25] = Ratio of drug concentration in brain to plasma in ICR mouse at 15 mg/kg, ip measured after 1 hr by UPLC-MS/MS analysis; type: ADME, organism-based
[26] = Ratio of drug concentration in brain to plasma in ICR mouse at 15 mg/kg, ip measured after 2 hrs by UPLC-MS/MS analysis; type: ADME, organism-based
[27] = Ratio of drug concentration in brain to plasma in ICR mouse at 15 mg/kg, ip measured after 4 hrs by UPLC-MS/MS analysis; type: ADME, organism-based
[28] = molecular target: T2, Glycogen synthase kinase-3 beta (Homo sapiens, UniProt P49841); assay: Inhibition of GSK-3beta in glyceraldehyde-treated human SH-SY5Y cells assessed as reduction in phosphorylated Tau levels at S199 site measured after 24 hrs by ELISA
Target sequence in this assay (P49841 whole entry, looked up): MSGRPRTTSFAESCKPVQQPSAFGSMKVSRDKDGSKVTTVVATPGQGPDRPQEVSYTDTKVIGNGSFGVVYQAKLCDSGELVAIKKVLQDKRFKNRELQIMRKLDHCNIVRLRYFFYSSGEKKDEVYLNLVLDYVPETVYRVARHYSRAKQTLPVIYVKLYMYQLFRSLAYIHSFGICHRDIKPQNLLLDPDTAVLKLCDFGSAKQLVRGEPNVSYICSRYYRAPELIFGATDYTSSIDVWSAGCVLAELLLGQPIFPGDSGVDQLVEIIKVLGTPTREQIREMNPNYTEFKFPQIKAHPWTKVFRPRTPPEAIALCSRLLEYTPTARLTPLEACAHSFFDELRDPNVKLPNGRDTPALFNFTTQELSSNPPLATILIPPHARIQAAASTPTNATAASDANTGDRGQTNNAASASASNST

[29] = molecular target: T2, Glycogen synthase kinase-3 beta; assay: Inhibition of GSK-3beta in glyceraldehyde-treated human SH-SY5Y cells assessed as reduction in phosphorylated Tau levels at S396 site measured after 24 hrs by ELISA
Target sequence in this assay (P49841 whole entry, looked up): as above

SH-SY5Y [30] = assay: Neuroprotective activity against glyceraldehyde-induced neurotoxicity in human SH-SY5Y cells assessed as increase in cell viability at 0.5 to 5 uM incubated for 24 hrs by MTT assay; type: functional, cell-based; settings: dose 0.5-5 µM
SH-SY5Y [31] = assay: Neuroprotective activity in human SH-SY5Y cells assessed as prevention of glyceraldehyde-induced neurite shortening at 0.5 to 5 uM incubated for 1 hr by confocal microsocopic analysis; type: functional, cell-based; settings: dose 0.5-5 µM
[32] = molecular target: Glycogen synthase kinase-3 alpha (Homo sapiens) (UniProt P49840); assay: Inhibition of GSK-3alpha (unknown origin) at 1000 nM
[33] = molecular target: T2, Glycogen synthase kinase-3 beta; assay: Inhibition of GSK-3beta (unknown origin) at 1000 nM
Target sequence in this assay (P49841 whole entry, looked up): as above

[34] = Toxicity in ICR mouse assessed as emesis at 15 mg/kg, ip measured after 15 days; type: organism-based; settings: in vivo, 360 h, time 15 day
[35] = Toxicity in ICR mouse assessed as diarrhea at 15 mg/kg, ip measured after 15 days; type: organism-based; settings: in vivo, 360 h, time 15 day
[36] = Toxicity in ICR mouse assessed as swimming motility impairment at 15 mg/kg, ip measured after 15 days; type: organism-based; settings: in vivo, 360 h, time 15 day
[37] = molecular target: T2, Glycogen synthase kinase-3 beta
Target sequence in this assay (P49841 whole entry): as the sequence (P49841 whole entry, looked up) above
Description: Inhibition of human recombinant GSK-3beta using prephosphorylated polypeptide as substrate incubated for 30 mins in presence of ATP by Kinase-Glo luminescence assay

Chain of Glycogen synthase kinase-3 alpha (Homo sapiens) (P49840 2-483 limits assumed): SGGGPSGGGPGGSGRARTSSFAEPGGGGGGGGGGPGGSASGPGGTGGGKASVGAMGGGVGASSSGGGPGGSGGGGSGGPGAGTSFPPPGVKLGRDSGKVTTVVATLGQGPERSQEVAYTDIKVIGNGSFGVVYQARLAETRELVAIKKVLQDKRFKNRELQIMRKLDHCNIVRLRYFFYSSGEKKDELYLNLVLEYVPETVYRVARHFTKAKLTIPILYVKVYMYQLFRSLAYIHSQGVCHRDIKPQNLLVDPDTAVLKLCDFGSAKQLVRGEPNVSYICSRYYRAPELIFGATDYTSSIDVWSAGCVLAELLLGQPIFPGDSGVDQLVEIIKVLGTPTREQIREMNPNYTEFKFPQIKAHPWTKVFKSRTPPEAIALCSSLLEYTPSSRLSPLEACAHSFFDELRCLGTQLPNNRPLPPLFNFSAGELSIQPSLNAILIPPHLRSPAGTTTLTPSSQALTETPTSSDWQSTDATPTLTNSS

`Cn1c(NCCCCCCCNc2c3c(nc4cc(Cl)ccc24)CCCC3)nc(-c2ccncc2F)cc1=O` gave an IC50 (Acetylcholinesterase) of 51.1 µM, a half-life [1] of 219 min and a half-life [2] of 69 min. It also gave a Tmax [3] of 1.98 min, a Tmax [4] of 8.34 min and a Cmax [5] of 2810 ng/mL. The Cmax [6] was 1870 ng/mL, the AUC(0-t) at 24 h [7] was 1560 ng·h/mL and the AUC(0-t) at 24 h [8] was 1660 ng·h/mL. It also gave a Vd [9] of 16.4 L/kg, a Vd [10] of 14.14 L/kg and a CL/F [11] of 0.0513 mL/min/kg. The CL/F [12] was 0.152 mL/min/kg, the MRT last at 24 h [13] was 183 min and the MRT last at 24 h [14] was 46.8 min. It also gave a bioavailability [15] of 35.3%, a concentration at 0.5 h [16] of 866 ng/mL and a concentration at 1 h [17] of 76.8 ng/mL. The concentration at 2 h [18] was 26.8 ng/mL, the concentration at 4 h [19] was 3.47 ng/mL and the concentration at 0.5 h [20] was 23.6 ng/g. The concentration at 1 h [21] was 11.1 ng/g, the concentration at 2 h [22] was 12.2 ng/g and the concentration at 4 h [23] was 5.99 ng/g. It also gave a Kp at 0.5 h [24] of 0.028, a Kp at 1 h [25] of 0.148 and a Kp at 2 h [26] of 0.522. For the same compound, the Kp at 4 h [27] was 1.92, the inhibition [28] was “Dose-Dependent Effect” and the inhibition [29] was “Dose-Dependent Effect”. For the same compound, the Activity (SH-SY5Y [30]) was “Active”, the Activity (SH-SY5Y [31]) was “Dose-Dependent Effect” and the inhibition [32] was “Active”. The inhibition [33] was “Active”, the Activity [34] was “Non-Toxic” and the Activity [35] was “Non-Toxic”. The Activity [36] was “Non-Toxic” and the IC50 [37] was 89.3 µM.
